The source made the active and inactive calls. Rule as the data show it, for most assays here: actives have a measured Kd and inactives only a lower limit.
What was measured:
[1] = target: Serine/threonine-protein kinase MRCK beta (Homo sapiens, UniProt Q9Y5S2)
[2] = target: Mitogen-activated protein kinase 3 (Homo sapiens, UniProt P27361)
[3] = target: T1, Serine/threonine-protein kinase ICK (Homo sapiens, UniProt Q9UPZ9)
T1 sequence (Q9UPZ9 whole entry): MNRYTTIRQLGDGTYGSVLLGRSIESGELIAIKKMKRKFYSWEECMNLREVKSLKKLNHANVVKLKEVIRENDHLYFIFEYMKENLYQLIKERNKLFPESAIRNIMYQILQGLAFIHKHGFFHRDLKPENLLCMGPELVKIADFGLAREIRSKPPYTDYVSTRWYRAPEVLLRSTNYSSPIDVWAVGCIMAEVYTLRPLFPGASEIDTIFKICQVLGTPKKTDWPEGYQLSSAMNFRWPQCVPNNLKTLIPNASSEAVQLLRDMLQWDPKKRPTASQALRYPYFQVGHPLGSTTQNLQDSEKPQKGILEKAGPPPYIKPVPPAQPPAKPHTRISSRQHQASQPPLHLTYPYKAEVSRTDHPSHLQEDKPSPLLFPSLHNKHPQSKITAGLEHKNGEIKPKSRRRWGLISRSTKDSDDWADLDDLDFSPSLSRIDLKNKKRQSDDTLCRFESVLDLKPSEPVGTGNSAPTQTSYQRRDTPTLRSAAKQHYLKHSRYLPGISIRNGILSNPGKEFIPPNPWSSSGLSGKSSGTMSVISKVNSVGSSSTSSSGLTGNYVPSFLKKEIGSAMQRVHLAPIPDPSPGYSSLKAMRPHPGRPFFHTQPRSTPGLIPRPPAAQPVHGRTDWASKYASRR

[4] = target: T2, Phosphatidylinositol 5-phosphate 4-kinase type-2 gamma (Homo sapiens, UniProt Q8TBX8)
T2 sequence (Q8TBX8 whole entry): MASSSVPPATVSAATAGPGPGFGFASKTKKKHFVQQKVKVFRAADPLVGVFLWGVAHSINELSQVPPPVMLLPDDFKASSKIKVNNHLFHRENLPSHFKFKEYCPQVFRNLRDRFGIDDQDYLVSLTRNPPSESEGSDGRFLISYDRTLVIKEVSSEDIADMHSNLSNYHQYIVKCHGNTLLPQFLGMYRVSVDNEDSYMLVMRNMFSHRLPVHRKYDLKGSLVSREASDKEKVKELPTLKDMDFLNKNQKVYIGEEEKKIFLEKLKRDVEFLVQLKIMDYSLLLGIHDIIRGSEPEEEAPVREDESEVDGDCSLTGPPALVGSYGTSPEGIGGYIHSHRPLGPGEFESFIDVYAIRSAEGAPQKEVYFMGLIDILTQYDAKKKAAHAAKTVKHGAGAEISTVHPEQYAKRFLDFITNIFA

[5] = target: 5'-AMP-activated protein kinase catalytic subunit alpha-1 (Homo sapiens, UniProt Q13131)
[6] = target: T3, Ferrochelatase, mitochondrial (Homo sapiens, UniProt P22830)
T3 sequence (P22830 whole entry): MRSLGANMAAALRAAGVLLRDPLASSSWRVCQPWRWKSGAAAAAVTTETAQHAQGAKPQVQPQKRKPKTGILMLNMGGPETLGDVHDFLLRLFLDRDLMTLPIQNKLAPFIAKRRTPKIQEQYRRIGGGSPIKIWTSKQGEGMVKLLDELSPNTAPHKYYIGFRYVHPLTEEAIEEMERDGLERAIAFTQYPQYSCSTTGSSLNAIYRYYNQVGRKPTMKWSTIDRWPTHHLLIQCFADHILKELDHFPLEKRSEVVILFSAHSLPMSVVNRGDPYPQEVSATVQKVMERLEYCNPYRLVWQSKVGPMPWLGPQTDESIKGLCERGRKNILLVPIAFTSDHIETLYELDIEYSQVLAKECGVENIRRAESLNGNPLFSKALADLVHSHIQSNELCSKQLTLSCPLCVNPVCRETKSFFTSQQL

[7] = target: T4, Bone morphogenetic protein receptor type-2 (Homo sapiens, UniProt Q13873)
T4 sequence (Q13873 whole entry): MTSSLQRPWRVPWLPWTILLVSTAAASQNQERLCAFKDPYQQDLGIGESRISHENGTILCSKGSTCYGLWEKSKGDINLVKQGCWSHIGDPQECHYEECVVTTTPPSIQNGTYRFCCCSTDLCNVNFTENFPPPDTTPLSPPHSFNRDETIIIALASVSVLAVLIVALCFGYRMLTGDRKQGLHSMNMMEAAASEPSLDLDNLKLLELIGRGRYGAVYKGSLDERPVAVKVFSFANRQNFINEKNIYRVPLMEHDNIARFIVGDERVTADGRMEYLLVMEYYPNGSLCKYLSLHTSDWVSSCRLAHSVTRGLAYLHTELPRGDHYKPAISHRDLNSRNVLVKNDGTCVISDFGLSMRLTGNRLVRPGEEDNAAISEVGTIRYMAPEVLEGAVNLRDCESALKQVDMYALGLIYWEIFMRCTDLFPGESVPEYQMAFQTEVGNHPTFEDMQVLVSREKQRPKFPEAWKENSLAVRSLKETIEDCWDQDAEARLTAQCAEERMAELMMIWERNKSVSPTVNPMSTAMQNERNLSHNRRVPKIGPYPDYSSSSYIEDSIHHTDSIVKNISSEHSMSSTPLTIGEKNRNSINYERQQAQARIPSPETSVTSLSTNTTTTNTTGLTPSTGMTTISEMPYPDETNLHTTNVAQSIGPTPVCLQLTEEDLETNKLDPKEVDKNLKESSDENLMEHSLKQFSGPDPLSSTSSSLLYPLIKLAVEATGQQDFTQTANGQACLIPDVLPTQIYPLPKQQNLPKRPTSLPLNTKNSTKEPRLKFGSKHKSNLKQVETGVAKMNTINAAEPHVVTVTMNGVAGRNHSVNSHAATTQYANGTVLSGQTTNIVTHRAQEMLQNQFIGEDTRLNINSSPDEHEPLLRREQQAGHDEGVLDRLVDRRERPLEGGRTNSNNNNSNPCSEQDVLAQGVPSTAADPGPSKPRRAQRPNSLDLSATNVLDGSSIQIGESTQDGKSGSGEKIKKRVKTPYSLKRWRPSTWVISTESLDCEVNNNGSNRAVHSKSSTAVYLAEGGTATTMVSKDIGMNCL

[8] = target: Serine/threonine-protein kinase 10 (Homo sapiens, UniProt O94804)
Chain of Serine/threonine-protein kinase 10 (O94804 whole entry): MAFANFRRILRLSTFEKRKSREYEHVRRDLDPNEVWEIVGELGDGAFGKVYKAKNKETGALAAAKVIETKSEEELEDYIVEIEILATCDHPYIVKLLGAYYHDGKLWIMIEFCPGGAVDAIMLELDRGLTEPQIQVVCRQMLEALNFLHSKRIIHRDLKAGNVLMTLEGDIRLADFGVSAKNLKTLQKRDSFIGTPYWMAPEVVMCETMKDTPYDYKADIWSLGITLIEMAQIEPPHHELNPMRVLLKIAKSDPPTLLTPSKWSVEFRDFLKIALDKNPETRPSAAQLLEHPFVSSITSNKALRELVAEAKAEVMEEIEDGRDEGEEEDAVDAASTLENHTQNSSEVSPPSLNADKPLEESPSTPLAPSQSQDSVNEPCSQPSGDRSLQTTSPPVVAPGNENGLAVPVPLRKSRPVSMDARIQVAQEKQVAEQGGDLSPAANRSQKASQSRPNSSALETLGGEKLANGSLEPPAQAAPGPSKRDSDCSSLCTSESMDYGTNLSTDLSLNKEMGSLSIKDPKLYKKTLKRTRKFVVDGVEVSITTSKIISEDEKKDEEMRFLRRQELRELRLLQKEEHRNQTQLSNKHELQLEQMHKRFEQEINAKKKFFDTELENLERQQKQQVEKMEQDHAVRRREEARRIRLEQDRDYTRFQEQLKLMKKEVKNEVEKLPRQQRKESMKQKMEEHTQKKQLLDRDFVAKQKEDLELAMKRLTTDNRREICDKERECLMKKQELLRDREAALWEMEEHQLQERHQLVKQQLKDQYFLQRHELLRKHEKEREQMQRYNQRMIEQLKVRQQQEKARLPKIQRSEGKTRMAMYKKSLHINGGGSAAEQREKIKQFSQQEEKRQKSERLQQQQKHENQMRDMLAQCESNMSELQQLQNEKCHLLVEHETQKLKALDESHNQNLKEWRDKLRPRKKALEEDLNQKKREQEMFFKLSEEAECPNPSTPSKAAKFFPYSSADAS

[9] = target: Tyrosine-protein kinase BTK (Homo sapiens, UniProt Q06187)
Chain of Tyrosine-protein kinase BTK (Q06187 whole entry): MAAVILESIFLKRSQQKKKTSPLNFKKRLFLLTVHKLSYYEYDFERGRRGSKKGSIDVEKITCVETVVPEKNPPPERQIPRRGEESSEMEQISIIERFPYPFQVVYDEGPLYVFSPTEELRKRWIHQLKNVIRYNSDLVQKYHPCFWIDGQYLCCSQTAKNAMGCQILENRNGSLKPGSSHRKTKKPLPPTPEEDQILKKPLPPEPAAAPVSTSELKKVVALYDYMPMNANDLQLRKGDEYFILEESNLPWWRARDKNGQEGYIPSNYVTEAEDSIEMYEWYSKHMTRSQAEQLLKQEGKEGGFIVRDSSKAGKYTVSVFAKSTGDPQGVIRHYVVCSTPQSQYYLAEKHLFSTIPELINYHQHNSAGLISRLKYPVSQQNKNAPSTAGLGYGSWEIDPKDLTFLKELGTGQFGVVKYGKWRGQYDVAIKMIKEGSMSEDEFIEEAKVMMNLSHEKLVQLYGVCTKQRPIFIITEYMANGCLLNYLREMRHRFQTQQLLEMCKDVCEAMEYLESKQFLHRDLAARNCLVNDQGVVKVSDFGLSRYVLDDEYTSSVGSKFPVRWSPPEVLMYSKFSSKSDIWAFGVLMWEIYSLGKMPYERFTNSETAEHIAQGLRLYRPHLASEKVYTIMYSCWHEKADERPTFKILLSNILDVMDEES

[10] = target: Mitogen-activated protein kinase kinase kinase 1 (Homo sapiens, UniProt Q13233)
Chain of Mitogen-activated protein kinase kinase kinase 1 (Q13233 whole entry): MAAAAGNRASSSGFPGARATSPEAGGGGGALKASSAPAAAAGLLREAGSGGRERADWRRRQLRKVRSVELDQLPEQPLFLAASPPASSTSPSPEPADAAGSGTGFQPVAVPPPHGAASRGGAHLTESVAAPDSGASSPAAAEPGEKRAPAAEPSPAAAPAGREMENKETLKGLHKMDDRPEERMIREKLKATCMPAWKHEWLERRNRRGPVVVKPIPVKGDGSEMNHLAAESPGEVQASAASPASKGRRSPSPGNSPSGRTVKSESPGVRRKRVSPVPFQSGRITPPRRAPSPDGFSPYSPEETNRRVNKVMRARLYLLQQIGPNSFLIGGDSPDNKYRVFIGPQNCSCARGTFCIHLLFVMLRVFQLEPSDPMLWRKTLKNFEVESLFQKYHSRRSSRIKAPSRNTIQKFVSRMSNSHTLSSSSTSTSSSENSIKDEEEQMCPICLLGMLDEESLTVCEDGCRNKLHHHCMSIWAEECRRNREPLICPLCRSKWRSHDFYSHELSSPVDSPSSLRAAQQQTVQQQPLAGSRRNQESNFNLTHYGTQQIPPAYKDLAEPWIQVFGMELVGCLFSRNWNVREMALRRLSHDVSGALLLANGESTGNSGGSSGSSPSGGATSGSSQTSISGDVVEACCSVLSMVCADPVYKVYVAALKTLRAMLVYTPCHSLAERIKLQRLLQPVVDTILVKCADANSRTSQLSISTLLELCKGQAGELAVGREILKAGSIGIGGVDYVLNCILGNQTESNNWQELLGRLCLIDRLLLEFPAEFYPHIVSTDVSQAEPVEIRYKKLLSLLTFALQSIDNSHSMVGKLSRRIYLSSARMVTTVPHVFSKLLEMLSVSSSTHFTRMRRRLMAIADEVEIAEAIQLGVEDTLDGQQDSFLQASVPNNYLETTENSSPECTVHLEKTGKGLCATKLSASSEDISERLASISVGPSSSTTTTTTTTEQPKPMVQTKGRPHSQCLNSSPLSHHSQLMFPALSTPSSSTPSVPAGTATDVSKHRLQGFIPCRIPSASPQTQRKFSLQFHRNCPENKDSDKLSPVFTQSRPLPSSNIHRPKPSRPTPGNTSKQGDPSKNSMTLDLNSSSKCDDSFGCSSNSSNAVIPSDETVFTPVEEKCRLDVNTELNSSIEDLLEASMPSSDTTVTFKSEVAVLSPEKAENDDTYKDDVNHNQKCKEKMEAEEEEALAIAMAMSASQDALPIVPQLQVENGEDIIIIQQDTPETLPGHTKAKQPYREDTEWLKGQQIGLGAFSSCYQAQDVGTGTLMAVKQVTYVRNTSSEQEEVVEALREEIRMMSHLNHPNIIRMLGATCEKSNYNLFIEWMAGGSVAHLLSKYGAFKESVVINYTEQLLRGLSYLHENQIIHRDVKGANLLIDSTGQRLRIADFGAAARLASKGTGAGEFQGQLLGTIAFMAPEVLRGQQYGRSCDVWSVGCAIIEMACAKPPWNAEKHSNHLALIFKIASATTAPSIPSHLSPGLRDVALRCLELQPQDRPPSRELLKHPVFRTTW
Also: in the data inactive means no Kd found up to 30 µM.

Chain of Serine/threonine-protein kinase MRCK beta (Q9Y5S2 whole entry): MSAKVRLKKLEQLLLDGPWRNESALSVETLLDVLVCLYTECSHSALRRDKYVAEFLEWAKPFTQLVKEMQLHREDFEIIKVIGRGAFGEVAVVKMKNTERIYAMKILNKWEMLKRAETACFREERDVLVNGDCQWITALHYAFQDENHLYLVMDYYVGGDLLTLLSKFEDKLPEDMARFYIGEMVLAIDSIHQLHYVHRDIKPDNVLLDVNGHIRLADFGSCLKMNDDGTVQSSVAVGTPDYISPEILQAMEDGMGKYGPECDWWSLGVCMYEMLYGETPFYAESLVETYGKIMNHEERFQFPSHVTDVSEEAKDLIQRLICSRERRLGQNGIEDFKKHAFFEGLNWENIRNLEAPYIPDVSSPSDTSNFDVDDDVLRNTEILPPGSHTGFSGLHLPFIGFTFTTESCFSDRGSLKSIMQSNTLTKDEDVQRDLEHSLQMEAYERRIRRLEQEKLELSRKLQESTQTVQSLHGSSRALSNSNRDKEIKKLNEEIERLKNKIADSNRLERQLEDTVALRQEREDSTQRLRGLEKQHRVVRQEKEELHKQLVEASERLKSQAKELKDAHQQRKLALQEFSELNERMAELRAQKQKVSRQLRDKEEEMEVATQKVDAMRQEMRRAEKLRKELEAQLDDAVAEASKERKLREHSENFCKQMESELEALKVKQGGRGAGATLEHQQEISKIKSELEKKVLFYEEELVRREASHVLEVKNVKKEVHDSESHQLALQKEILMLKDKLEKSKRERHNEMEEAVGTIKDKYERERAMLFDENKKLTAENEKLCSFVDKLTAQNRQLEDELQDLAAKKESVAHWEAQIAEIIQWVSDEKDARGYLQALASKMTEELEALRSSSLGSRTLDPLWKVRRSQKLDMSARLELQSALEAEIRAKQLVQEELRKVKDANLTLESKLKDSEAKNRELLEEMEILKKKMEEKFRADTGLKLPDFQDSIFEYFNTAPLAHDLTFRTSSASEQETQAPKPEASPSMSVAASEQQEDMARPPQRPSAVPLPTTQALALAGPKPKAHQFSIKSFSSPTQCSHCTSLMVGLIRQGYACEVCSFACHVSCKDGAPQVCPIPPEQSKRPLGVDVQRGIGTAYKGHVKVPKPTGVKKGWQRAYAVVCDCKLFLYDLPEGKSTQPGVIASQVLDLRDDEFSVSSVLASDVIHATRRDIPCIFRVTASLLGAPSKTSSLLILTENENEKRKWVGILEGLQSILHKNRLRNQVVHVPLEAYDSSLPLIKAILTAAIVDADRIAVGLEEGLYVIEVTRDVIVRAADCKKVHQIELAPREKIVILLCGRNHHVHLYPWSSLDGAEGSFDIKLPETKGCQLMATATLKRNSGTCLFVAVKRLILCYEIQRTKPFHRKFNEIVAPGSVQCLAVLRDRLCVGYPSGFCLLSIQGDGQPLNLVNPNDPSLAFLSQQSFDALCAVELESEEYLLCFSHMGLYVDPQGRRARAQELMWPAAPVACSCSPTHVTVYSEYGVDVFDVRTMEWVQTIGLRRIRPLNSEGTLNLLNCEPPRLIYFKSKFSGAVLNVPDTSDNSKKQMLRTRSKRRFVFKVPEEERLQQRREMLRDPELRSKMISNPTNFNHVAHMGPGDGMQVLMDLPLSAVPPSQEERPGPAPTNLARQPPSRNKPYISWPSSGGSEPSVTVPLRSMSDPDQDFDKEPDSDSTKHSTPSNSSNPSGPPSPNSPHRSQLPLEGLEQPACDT

Row | SMILES | Kd [1] | Kd [2] | Kd [3] | Kd [4] | Kd [5] | Kd [6] | Kd [7] | Kd [8] | Kd [9] | Kd [10]
1 | Cn1cc(-c2[nH]c3cc(NC(=O)[C@H](N)C4CCCCC4)cc4c3c2C=NNC4=O)cn1 | > 30 µM (inactive) | 3.21 µM (active) | > 30 µM (inactive) | > 30 µM (inactive) | 1.32 µM (active) | > 30 µM (inactive) | > 30 µM (inactive) | > 30 µM (inactive) | 2.84 µM (active) | –
2 | CCN1CCN(Cc2ccc(Nc3ncc(F)c(-c4cc(F)c5nc(C)n(C(C)C)c5c4)n3)nc2)CC1 [ABEMACICLIB] | > 30 µM (inactive) | > 30 µM (inactive) | 0.053 µM (active) | > 30 µM (inactive) | > 30 µM (inactive) | > 30 µM (inactive) | > 30 µM (inactive) | 2.47 µM (active) | > 30 µM (inactive) | > 30 µM (inactive)
3 | CCc1cc2c(cc1N1CCC(N3CCOCC3)CC1)C(C)(C)c1[nH]c3cc(C#N)ccc3c1C2=O [ALECTINIB] | > 30 µM (inactive) | > 30 µM (inactive) | > 30 µM (inactive) | > 30 µM (inactive) | > 30 µM (inactive) | > 30 µM (inactive) | > 30 µM (inactive) | > 30 µM (inactive) | > 30 µM (inactive) | > 30 µM (inactive)
4 | COc1ccc2c(OCc3nnc4ccc(-c5ccccc5)nn34)ccnc2c1 [AMG-208] | > 30 µM (inactive) | > 30 µM (inactive) | > 30 µM (inactive) | > 30 µM (inactive) | > 30 µM (inactive) | > 30 µM (inactive) | > 30 µM (inactive) | > 30 µM (inactive) | > 30 µM (inactive) | > 30 µM (inactive)
5 | Cc1cc(Nc2nc(N[C@@H](C)c3ncc(F)cn3)ncc2Cl)n[nH]1 [AZD-1480] | > 30 µM (inactive) | > 30 µM (inactive) | > 30 µM (inactive) | > 30 µM (inactive) | > 30 µM (inactive) | > 30 µM (inactive) | > 30 µM (inactive) | 0.728 µM (active) | > 30 µM (inactive) | > 30 µM (inactive)
6 | COc1ccc(-c2ccc3ncc4c(c3c2)n(-c2ccc(N3CCNCC3)c(C(F)(F)F)c2)c(=O)n4C)cn1 [BGT-226 FREE BASE] | > 30 µM (inactive) | > 30 µM (inactive) | > 30 µM (inactive) | 4.79 µM (active) | > 30 µM (inactive) | 3.11 µM (active) | > 30 µM (inactive) | > 30 µM (inactive) | > 30 µM (inactive) | > 30 µM (inactive)
7 | COc1cccc(Nc2ncnn3ccc(CN4CC[C@@H](N)[C@H](O)C4)c23)c1 [BMS-690514] | > 30 µM (inactive) | > 30 µM (inactive) | > 30 µM (inactive) | > 30 µM (inactive) | > 30 µM (inactive) | > 30 µM (inactive) | > 30 µM (inactive) | 1.28 µM (active) | > 30 µM (inactive) | > 30 µM (inactive)
8 | COc1cc2nccc(Oc3ccc(NC(=O)C4(C(=O)Nc5ccc(F)cc5)CC4)cc3)c2cc1OC [CABOZANTINIB] | > 30 µM (inactive) | > 30 µM (inactive) | > 30 µM (inactive) | 2.9 µM (active) | > 30 µM (inactive) | 2.63 µM (active) | > 30 µM (inactive) | > 30 µM (inactive) | > 30 µM (inactive) | > 30 µM (inactive)
9 | c1cc(OCCN2CCCCC2)cc(-c2n[nH]c3ccc(-c4nc[nH]n4)cc23)c1 [CC-401] | > 30 µM (inactive) | > 30 µM (inactive) | > 30 µM (inactive) | > 30 µM (inactive) | > 30 µM (inactive) | 32.4 µM (active) | > 30 µM (inactive) | > 30 µM (inactive) | > 30 µM (inactive) | > 30 µM (inactive)
10 | CC1(COc2ccc3c(c2)ncn3-c2ccc3cccc(N4CCC(N)CC4)c3n2)COC1 [CRENOLANIB] | > 30 µM (inactive) | > 30 µM (inactive) | > 30 µM (inactive) | > 30 µM (inactive) | 1.25 µM (active) | 7.35 µM (active) | > 30 µM (inactive) | 3.43 µM (active) | > 30 µM (inactive) | > 30 µM (inactive)
11 | COc1cc2ncnc(Nc3ccc(F)c(Cl)c3)c2cc1NC(=O)/C=C/CN1CCCCC1 [DACOMITINIB ANHYDROUS] | > 30 µM (inactive) | > 30 µM (inactive) | > 30 µM (inactive) | > 30 µM (inactive) | > 30 µM (inactive) | > 30 µM (inactive) | > 30 µM (inactive) | > 30 µM (inactive) | > 30 µM (inactive) | > 30 µM (inactive)
12 | CC[C@@](C)(Nc1ccnc(-c2c[nH]c3ncccc23)n1)C(=O)NCC(F)(F)F [DECERNOTINIB] | 0.116 µM (active) | > 30 µM (inactive) | > 30 µM (inactive) | > 30 µM (inactive) | > 30 µM (inactive) | > 30 µM (inactive) | > 30 µM (inactive) | 0.071 µM (active) | > 30 µM (inactive) | > 30 µM (inactive)
13 | CNC(=O)c1ccc(Nc2ncc(C(F)(F)F)c(NCc3nccnc3N(C)S(C)(=O)=O)n2)cc1 [DEFACTINIB] | > 30 µM (inactive) | > 30 µM (inactive) | > 30 µM (inactive) | > 30 µM (inactive) | > 30 µM (inactive) | > 30 µM (inactive) | > 30 µM (inactive) | > 30 µM (inactive) | > 30 µM (inactive) | > 30 µM (inactive)
14 | COc1cc(Nc2ncc(F)c(Nc3ccc4c(n3)N(COP(=O)(O)O)C(=O)C(C)(C)O4)n2)cc(OC)c1OC [FOSTAMATINIB] | > 30 µM (inactive) | > 30 µM (inactive) | > 30 µM (inactive) | – | > 30 µM (inactive) | > 30 µM (inactive) | > 30 µM (inactive) | > 30 µM (inactive) | > 30 µM (inactive) | > 30 µM (inactive)
